Reference: US12559506B2, “Indazole based compounds and associated methods of use” (Arvinas Operations, Inc., priority 2021, dated 2026)
Like-named read-outs stand apart in the source and are kept apart here.

Biological target: T1, LRRK2 (endogenous, HiBit tagged) (Homo sapiens, UniProt Q5S007)
T1 construct: endogenous in cells; host or cells: HEK293 cells with HiBit knock-in at the endogenous LRRK2 locus, stably expressing firefly luciferase
Experiment: Endogenous LRRK2 degradation assay, endogenous gene C-terminally HiBit-tagged in HEK293 cells (Nano-Glo Dual Luciferase)
Type: cell-based
In short: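 LRRK2-HiBit quantified via Nano-Glo Dual Luciferase in HEK293 knock-in cells co-expressing firefly luciferase, after 24 h exposure to compound (1 μM final top, 1:3, 11 points). Values normalised to DMSO median per plate and curve-fitted; Alamar Blue viability run alongside.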

[1] = endogenous HiBit-tagged LRRK2 in HEK293 cells, 24 hours treatment, read-out: **Endogenous WT Dmax (%)
[2] = endogenous HiBit-tagged LRRK2 in HEK293 cells, 24 hours treatment, read-out: *Endogenous WT DC50
[3] = endogenous HiBit-tagged LRRK2 in HEK293 cells, 24 hours treatment, read-out: Endogenous WT DC50
[4] = endogenous HiBit-tagged LRRK2 in HEK293 cells, 24 hours treatment, read-out: Endogenous WT Dmax
[5] = endogenous HiBit-tagged LRRK2 in HEK293 cells, 24 hours, read-out: **Endogenous WT Dmax (%)
[6] = endogenous HiBit-tagged LRRK2 in HEK293 cells, 24 hours, read-out: *Endogenous WT DC50
[7] = endogenous HiBit-tagged LRRK2, HEK293 cells, 24 hours, read-out: **Endogenous WT Dmax (%)
[8] = endogenous HiBit-tagged LRRK2, HEK293 cells, 24 hours, read-out: *Endogenous WT DC50

T1 sequence (Q5S007 whole entry): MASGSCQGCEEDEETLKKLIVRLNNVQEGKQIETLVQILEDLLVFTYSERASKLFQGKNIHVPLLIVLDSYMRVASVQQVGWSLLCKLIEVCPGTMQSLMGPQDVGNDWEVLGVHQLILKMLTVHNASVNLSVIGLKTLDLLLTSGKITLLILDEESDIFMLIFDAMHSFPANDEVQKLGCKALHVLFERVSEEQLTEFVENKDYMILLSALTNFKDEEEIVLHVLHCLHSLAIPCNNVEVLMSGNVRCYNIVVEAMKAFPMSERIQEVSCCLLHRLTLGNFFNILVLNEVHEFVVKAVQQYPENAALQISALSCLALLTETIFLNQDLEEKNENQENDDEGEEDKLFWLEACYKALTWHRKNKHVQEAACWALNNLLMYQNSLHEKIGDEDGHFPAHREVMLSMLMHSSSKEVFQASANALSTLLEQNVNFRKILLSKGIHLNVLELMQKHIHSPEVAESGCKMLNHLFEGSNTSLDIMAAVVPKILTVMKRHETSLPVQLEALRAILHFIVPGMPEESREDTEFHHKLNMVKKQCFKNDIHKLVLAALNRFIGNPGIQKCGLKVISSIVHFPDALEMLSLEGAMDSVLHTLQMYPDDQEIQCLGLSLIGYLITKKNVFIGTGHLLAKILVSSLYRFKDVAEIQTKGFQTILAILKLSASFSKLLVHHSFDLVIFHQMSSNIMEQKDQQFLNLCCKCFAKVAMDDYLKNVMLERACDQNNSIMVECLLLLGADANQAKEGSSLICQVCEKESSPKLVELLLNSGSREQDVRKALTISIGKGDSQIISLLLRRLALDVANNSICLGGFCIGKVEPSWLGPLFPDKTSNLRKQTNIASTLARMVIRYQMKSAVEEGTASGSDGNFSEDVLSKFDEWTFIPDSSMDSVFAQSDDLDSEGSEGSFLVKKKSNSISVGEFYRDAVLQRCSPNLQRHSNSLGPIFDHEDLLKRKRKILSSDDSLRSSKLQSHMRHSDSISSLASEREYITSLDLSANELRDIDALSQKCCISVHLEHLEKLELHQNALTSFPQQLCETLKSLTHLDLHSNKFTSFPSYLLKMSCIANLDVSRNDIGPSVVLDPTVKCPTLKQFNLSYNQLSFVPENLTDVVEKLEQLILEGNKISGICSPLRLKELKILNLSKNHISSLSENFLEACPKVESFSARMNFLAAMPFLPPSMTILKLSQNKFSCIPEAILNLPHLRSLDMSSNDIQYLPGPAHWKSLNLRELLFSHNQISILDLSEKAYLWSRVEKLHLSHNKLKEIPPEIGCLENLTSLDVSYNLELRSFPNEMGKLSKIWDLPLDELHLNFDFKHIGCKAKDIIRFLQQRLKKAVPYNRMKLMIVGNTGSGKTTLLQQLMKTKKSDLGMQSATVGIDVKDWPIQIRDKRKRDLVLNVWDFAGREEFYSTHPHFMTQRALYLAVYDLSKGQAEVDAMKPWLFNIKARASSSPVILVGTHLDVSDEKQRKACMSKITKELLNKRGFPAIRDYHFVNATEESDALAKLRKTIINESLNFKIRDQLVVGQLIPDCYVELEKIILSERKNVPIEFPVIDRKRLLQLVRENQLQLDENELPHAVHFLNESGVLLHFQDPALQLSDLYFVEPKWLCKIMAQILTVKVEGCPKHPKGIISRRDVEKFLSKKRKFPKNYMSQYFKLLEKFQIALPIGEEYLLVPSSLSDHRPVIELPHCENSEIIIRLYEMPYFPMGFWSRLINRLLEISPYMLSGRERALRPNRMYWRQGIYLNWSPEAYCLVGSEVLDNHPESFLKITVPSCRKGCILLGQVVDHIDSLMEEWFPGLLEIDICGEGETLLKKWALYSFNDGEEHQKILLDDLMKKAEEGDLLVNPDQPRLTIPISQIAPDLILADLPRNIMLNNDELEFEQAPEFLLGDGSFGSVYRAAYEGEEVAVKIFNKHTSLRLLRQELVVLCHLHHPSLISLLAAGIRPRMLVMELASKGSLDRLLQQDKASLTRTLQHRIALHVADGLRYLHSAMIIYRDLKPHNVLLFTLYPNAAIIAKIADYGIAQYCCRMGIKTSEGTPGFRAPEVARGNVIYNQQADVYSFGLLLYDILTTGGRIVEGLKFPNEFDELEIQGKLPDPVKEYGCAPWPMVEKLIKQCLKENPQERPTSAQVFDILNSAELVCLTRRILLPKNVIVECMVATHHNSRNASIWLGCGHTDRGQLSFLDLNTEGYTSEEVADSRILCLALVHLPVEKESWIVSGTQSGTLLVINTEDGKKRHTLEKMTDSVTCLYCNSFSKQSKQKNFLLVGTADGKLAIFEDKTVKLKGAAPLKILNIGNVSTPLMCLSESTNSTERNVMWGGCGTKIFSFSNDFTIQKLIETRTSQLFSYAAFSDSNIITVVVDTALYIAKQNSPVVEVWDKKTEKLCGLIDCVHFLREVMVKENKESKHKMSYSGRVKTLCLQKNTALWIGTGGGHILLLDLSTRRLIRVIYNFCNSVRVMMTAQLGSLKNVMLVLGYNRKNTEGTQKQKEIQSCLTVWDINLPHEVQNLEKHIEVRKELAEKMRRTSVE

Dmax [1] [%]	DC50 [2] [nM]	DC50 [3] [nM]	Dmax [4] [%]	SMILES	further results
50 to 70	< 10	–	–	CC1(Oc2ccc3[nH]nc(-c4cc(N5CCC(O[C@H]6CC[C@H](CN7CCN(c8c(F)cc9c(c8F)CN(C8CCC(=O)NC8=O)C9=O)CC7)CC6)CC5)ncn4)c3c2)CC1 (some centres unmarked) [Compound 269, 3-[4,6-difluoro-1-oxo-5-(4-{[(1r,4r)-4-[(1-{6-[5-(1-methylcyclopropoxy)-1H-indazol-3-yl]pyrimidin-4-yl}piperidin-4-yl)oxy]cyclohexyl]methyl}piperazin-1-yl)-2,3-dihydro-1H-isoindol-2-yl]piperidine-2,6-dione]	–
–	–	< 10	50 to 70	CC1(Oc2ccc3n[nH]c(-c4cc(N5CCC(CN6C[C@H]7C[C@@H]6CN7CC6CCN(c7ccc8c(c7F)CN(C7CCC(=O)NC7=O)C8=O)CC6)CC5)ncn4)c3c2)CC1 (stereo partly drawn) [Compound 226, 3-[4-fluoro-5-(4-{[(1R,4R)-5-[(1-{6-[5-(1-methylcyclopropoxy)-2H-indazol-3-yl]pyrimidin-4-yl}piperidin-4-yl)methyl]-2,5-diazabicyclo[2.2.1]heptan-2-yl]methyl}piperidin-1-yl)-1-oxo-2,3-dihydro-1H-isoindol-2-yl]piperidine-2,6-dione]	–
50 to 70	< 10	–	–	CC1(Oc2ccc3n[nH]c(-c4cc(N5CCC(O[C@H]6C[C@H](CN7CCN(c8ccc9c(c8F)CN(C8CCC(=O)NC8=O)C9=O)CC7)C6)CC5)ncn4)c3c2)CC1 (some centres unmarked) [Compound 351, 3-[4-fluoro-1-oxo-5-(4-{[(1r,3r)-3-[(1-{6-[5-(1-methylcyclopropoxy)-2H-indazol-3-yl]pyrimidin-4-yl}piperidin-4-yl)oxy]cyclobutyl]methyl}piperazin-1-yl)-2,3-dihydro-1H-isoindol-2-yl]piperidine-2,6-dione]	–
–	–	< 10	50 to 70	CC1(Oc2ccc3[nH]nc(-c4cc(N5CCC(CN6CCN(CC7CCN(c8c(F)cc9c(c8F)CN(C8CCC(=O)NC8=O)C9=O)CC7)CC6)CC5)ncn4)c3c2)CC1 (centres unmarked) [Compound 219, 3-[4,6-difluoro-5-[4-[[4-[[1-[6-[5-(1-methylcyclopropoxy)-1H-indazol-3-yl]pyrimidin-4-yl]-4-piperidyl]methyl]piperazin-1-yl]methyl]-1-piperidyl]-1-oxo-isoindolin-2-yl]piperidine-2,6-dione]	–
50 to 70	< 10	–	–	CC1(Oc2ccc3[nH]nc(-c4cc(N5CCC(CN6CCN(C[C@@H]7CCN(c8ccc9c(c8F)CN(C8CCC(=O)NC8=O)C9=O)C7)CC6)CC5)ncn4)c3c2)CC1 (stereo partly drawn) [Compound 321, 3-{4-fluoro-5-[(3S)-3-({4-[(1-{6-[5-(1-methylcyclopropoxy)-1H-indazol-3-yl]pyrimidin-4-yl}piperidin-4-yl)methyl]piperazin-1-yl}methyl)pyrrolidin-1-yl]-1-oxo-2,3-dihydro-1H-isoindol-2-yl}piperidine-2,6-dione]	–
50 to 70	< 10	–	–	CC1(Oc2cc3c(-c4cc(N5CCC(CN6CCC(F)(CN7CCN(c8ccc9c(c8F)CN(C8CCC(=O)NC8=O)C9=O)CC7)CC6)CC5)ncn4)n[nH]c3cn2)CC1 (centres unmarked) [Compound 343, 3-{4-fluoro-5-[4-({4-fluoro-1-[(1-{6-[5-(1-methylcyclopropoxy)-1H-pyrazolo[3,4-c]pyridin-3-yl]pyrimidin-4-yl}piperidin-4-yl)methyl]piperidin-4-yl}methyl)piperazin-1-yl]-1-oxo-2,3-dihydro-1H-isoindol-2-yl}piperidine-2,6-dione]	–
–	–	< 10	≥ 70	COc1cc(N2CCC(CN3CCC(F)(CN4CCN(c5cc(-c6n[nH]c7ccc(OC8(C)CC8)cc67)ncn5)CC4)CC3)CC2)cc2c1C(=O)N(C1CCC(=O)NC1=O)C2 (centres unmarked) [Compound 216, 3-{5-[4-({4-fluoro-4-[(4-{6-[5-(1-methylcyclopropoxy)-1H-indazol-3-yl]pyrimidin-4-yl}piperazin-1-yl)methyl]piperidin-1-yl}methyl)piperidin-1-yl]-7-methoxy-1-oxo-2,3-dihydro-1H-isoindol-2-yl}piperidine-2,6-dione]	–
–	–	< 10	50 to 70	CC1(Oc2ccc3[nH]nc(-c4cc(N5CCN(CC6(F)CCN(CC7CCN(c8c(F)cc9c(c8F)CN(C8CCC(=O)NC8=O)C9=O)CC7)CC6)CC5)ncn4)c3c2)CC1 (centres unmarked) [Compound 220, 3-{4,6-difluoro-5-[4-({4-fluoro-4-[(4-{6-[5-(1-methylcyclopropoxy)-1H-indazol-3-yl]pyrimidin-4-yl}piperazin-1-yl)methyl]piperidin-1-yl}methyl)piperidin-1-yl]-1-oxo-2,3-dihydro-1H-isoindol-2-yl}piperidine-2,6-dione]	–
–	–	< 10	50 to 70	COc1c(N2CCC(O[C@H]3CC[C@H](CN4CCN(c5cc(-c6n[nH]c7cc(F)c(OC8(C)CC8)cc67)ncn5)CC4)CC3)CC2)ccc2c1CN(C1CCC(=O)NC1=O)C2=O (some centres unmarked) [Compound 360, 3-[4-methoxy-1-oxo-5-(4-{[(1r,4r)-4-[(4-{6-[6-fluoro-5-(1-methylcyclopropoxy)-1H-indazol-3-yl]pyrimidin-4-yl}piperazin-1-yl)methyl]cyclohexyl]oxy}piperidin-1-yl)-2,3-dihydro-1H-isoindol-2-yl]piperidine-2,6-dione]	–
50 to 70	< 10	–	–	C[C@H]1CN(CC2CCN(c3cc(-c4n[nH]c5cnc(OC6(C)CC6)cc45)ncn3)CC2)CCN1CC1CCN(c2ccc3c(c2F)CN(C2CCC(=O)NC2=O)C3=O)CC1 (stereo partly drawn) [Compound 276, 3-[4-fluoro-5-(4-{[(2S)-2-methyl-4-[(1-{6-[5-(1-methylcyclopropoxy)-1H-pyrazolo[3,4-c]pyridin-3-yl]pyrimidin-4-yl}piperidin-4-yl)methyl]piperazin-1-yl]methyl}piperidin-1-yl)-1-oxo-2,3-dihydro-1H-isoindol-2-yl]piperidine-2,6-dione]	–
–	–	–	–	C[C@H]1CN(c2cc(-c3[nH]nc4ccc(OC5(C)CC5)cc34)ncn2)CCN1CC(=O)N1CCC(CN2CCN(c3ccc4c(c3)C(=O)N(C3CCC(=O)NC3=O)C4=O)CC2)CC1 (stereo partly drawn) [Compound 59, 2-(2,6-dioxo-3-piperidyl)-5-[4-[[1-[2-[(2S)-2-methyl-4-[6-[5-(1-methylcyclopropoxy)-2H-indazol-3-yl]pyrimidin-4-yl]piperazin-1-yl]acetyl]-4-piperidyl]methyl]piperazin-1-yl]isoindoline-1,3-dione]	Dmax [5]: ≥ 70%; DC50 [6]: < 10 nM
–	–	–	–	C[C@H]1CN(c2cc(-c3n[nH]c4ccc(OC5(C)CC5)cc34)ncn2)CCN1CC1(F)CN(CC2CCN(c3ccc4c(c3)C(=O)N(C3CCC(=O)NC3=O)C4=O)CC2)C1 (stereo partly drawn) [Compound 123, 2-(2,6-dioxopiperidin-3-yl)-5-{4-[(3-fluoro-3-{[(2S)-2-methyl-4-{6-[5-(1-methylcyclopropoxy)-1H-indazol-3-yl]pyrimidin-4-yl}piperazin-1-yl]methyl}azetidin-1-yl)methyl]piperidin-1-yl}-2,3-dihydro-1H-isoindole-1,3-dione]	Dmax [5]: < 50%; DC50 [6]: < 10 nM
50 to 70	< 10	–	–	COc1c(N2CC3(CCN(CCC4CCN(c5cc(-c6n[nH]c7ccc(OC8(C)CC8)cc67)ncn5)CC4)CC3(F)F)C2)ccc2c1CN(C1CCC(=O)NC1=O)C2=O (centres unmarked) [Compound 341, 3-(5-{5,5-difluoro-7-[2-(1-{6-[5-(1-methylcyclopropoxy)-1H-indazol-3-yl]pyrimidin-4-yl}piperidin-4-yl)ethyl]-2,7-diazaspiro[3.5]nonan-2-yl}-4-methoxy-1-oxo-2,3-dihydro-1H-isoindol-2-yl)piperidine-2,6-dione]	–
–	–	–	–	CC1(Oc2cc3c(-c4cc(N5CCC(CN6CCC(F)(CN7CCN(c8cc9c(cc8F)C(=O)N(C8CCC(=O)NC8=O)C9)CC7)CC6)CC5)ncn4)[nH]nc3cc2F)CC1 (centres unmarked) [Compound 193, 3-[6-fluoro-5-[4-[[4-fluoro-1-[[1-[6-[6-fluoro-5-(1-methylcyclopropoxy)-2H-indazol-3-yl]pyrimidin-4-yl]-4-piperidyl]methyl]-4-piperidyl]methyl]piperazin-1-yl]-1-oxo-isoindolin-2-yl]piperidine-2,6-dione]	Dmax [7]: ≥ 70%; DC50 [8]: < 10 nM
–	–	–	–	CC1(Oc2ccc3[nH]nc(-c4cc(N5CCC(CN6CCC(F)(CN7CCN(c8ccc9c(c8F)CN(C8CCC(=O)NC8=O)C9=O)CC7)CC6)CC5)ncn4)c3c2)CC1 (centres unmarked) [Compound 190, 3-[4-fluoro-5-[4-[[4-fluoro-1-[[1-[6-[5-(1-methylcyclopropoxy)-1H-indazol-3-yl]pyrimidin-4-yl]-4-piperidyl]methyl]-4-piperidyl]methyl]piperazin-1-yl]-1-oxo-isoindolin-2-yl]piperidine-2,6-dione]	Dmax [7]: ≥ 70%; DC50 [8]: < 10 nM

SMILES	Dmax [1] [%]	DC50 [2] [nM]	DC50 [3] [nM]	Dmax [4] [%]	further results
CC1(Oc2cc3c(-c4cc(N5CCC(O[C@H]6C[C@H](OC7CCN(c8ccc9c(c8F)CN(C8CCC(=O)NC8=O)C9=O)CC7)C6)CC5)ncn4)n[nH]c3cn2)CC1 (some centres unmarked) [Compound 218, 3-[4-fluoro-5-[4-[3-[[1-[6-[5-(1-methylcyclopropoxy)-1H-pyrazolo[3,4-c]pyridin-3-yl]pyrimidin-4-yl]-4-piperidyl]oxy]cyclobutoxy]-1-piperidyl]-1-oxo-isoindolin-2-yl]piperidine-2,6-dione]	–	–	< 10	50 to 70	–
